Values of other authors, collected in publication PMC8287861 (Frontiers in Microbiology, 2021).
Values after ≈ are worked out from the molar mass of the structure shown. Read-outs that look alike come from different tables or passages of the source.

Tests used:
[1] = test system: KPC-producing strains of Klebsiella pneumoniae and blaKPC mutants; parameters: method as in Nelson et al., 2019; details: ref Nelson et al., 2019
Pseudomonas aeruginosa = test system: Pseudomonas aeruginosa; parameters: method as in Lomovskaya et al. (2021); details: ref Lomovskaya et al. (2021); for MIC50 / MIC90: challenge panel, QPX7728 at 8 μg/ml
PAM4938 VCC-1 = test system: PAM4938 VCC-1; parameters: method as in Lomovskaya et al. (2020b); details: PAM4938, VCC-1, class A-CARB; ref Lomovskaya et al. (2020b)
PAM4827 OXA-1 = test system: PAM4827 OXA-1; parameters: method as in Lomovskaya et al. (2020b); details: PAM4827, OXA-1, class D; ref Lomovskaya et al. (2020b)

Compound: CC(C)(O/N=C(\C(=O)N[C@@H]1C(=O)N2C(C(=O)[O-])=C(C[n+]3ccccc3)CS[C@H]12)c1csc(N)n1)C(=O)O [Ceftazidime, ceftazidime]
- MIC ([1]; KP1074, KPC-3, SHV-11, TEM-1/GD): >128 µg/mL
- MIC ([1]; KP1099, KPC-2, SHV-11, SHV-12, CTX-M-14/GD): >128 µg/mL
- MIC ([1]; KP1102, KPC-3, TEM-1, SHV-11/GD): >128 µg/mL
- MIC ([1]; KP1246, KPC-3, SHV-12, SHV-11/FL): >128 µg/mL
- MIC ([1]; KP1252, KPC-3, TEM-1, SHV-11/FL): >128 µg/mL
- MIC ([1]; KP1317, KPC-3, TEM-1, SHV-11/GD): >128 µg/mL
- MIC ([1]; KP1500, KPC-3, TEM-1, SHV-11, CTX-M-15 OXA-1 OXA-9/IS at −48): >128 µg/mL
- MIC ([1]; KPM3191, KPC-3:: DDK duplication at aa#831 (KPC-29)): >128 µg/mL
- MIC ([1]; KPM3192, KPC-3:: D179Y (KPC-31)): >128 µg/mL
- MIC ([1]; KPM3200, KPC-3::duplication of EAVI (aa#278)): >128 µg/mL
- MIC ([1]; KPM3205, KPC-3 ::duplication of KKDY (aa#273)): >128 µg/mL
- MIC ([1]; KPM3210, KPC-2::D179N): >128 µg/mL
- MIC ([1]; KPM3212, deletion of ELNSAI at aa#497): >128 µg/mL
- MIC ([1]; KPM3213, KPC-2::D179Y (KPC-31), selected from KP1099): >128 µg/mL
- MIC ([1]; KPM3214, KPC-2::D179A): >128 µg/mL
- MIC ([1]; KPM3493, KPC-3::duplication of EL at aa#164 (KPC-25)): >128 µg/mL
- MIC ([1]; KPM3494, KPC-3::R167S): >128 µg/mL
- MIC ([1]; KPM3495, KPC-3::A175V): >128 µg/mL
- MIC ([1]; KPM3511, KPC-3::P174Q): >128 µg/mL
- MIC ([1]; KPM3512, KPC-3:: P174L): >128 µg/mL
- MIC ([1]; KPM3517, KPC-3::D179Y (KPC-31)): >128 µg/mL
- MIC ([1]; KPM3520, Both WT and mutant KPC-3::duplication of 8aa (aa#264–271)): >128 µg/mL
- MIC ([1]; KPM3523, Both WT and mutant KPC-3:: deletion of EL (aa#241–242)): >128 µg/mL
- MIC ([1]; KPM3546, KPC-3::R164H): >128 µg/mL

Compound: CCN1CCN(C(=O)N[C@@H](C(=O)N[C@@H]2C(=O)N3[C@@H]2SC(C)(C)[C@@H]3C(=O)O)c2ccccc2)C(=O)C1=O [Piperacillin, piperacillin]
- % of isolates shifted by QPX7728 at or below breakpoint (Pseudomonas aeruginosa; challenge panel (N = 290), with QPX7728, 8 or 16 μg/ml for cefepime and piperacillin, respectively): 70.3%
- MIC50 (Pseudomonas aeruginosa; All (N = 290)): >64 µg/mL
- MIC90 (Pseudomonas aeruginosa; All (N = 290)): >64 µg/mL
- MIC50 (Pseudomonas aeruginosa; MBL (N = 61)): >64 µg/mL
- MIC90 (Pseudomonas aeruginosa; MBL (N = 61)): >64 µg/mL
- MIC50 (Pseudomonas aeruginosa; No MBL (N = 229)): >64 µg/mL
- MIC90 (Pseudomonas aeruginosa; No MBL (N = 229)): >64 µg/mL
- MIC (PAM4938 VCC-1): 16 µg/mL (≈ 30.9 µM)
- MIC (PAM4827 OXA-1): 4 µg/mL (≈ 7.73 µM)
